Measured values: the NIST ThermoML archive (doi:10.1016/j.jct.2019.03.036)
± gives the expanded uncertainty stated by the source.

Conditions: Liquid, Ebulliometric method (Recirculating still)

SMILES: C[S+](C)[O-] [dimethyl sulfoxide]
- vapor or sublimation pressure (463.27 K): 101.3 ± 3.6 kPa

SMILES: CCOC(C)=O [ethyl acetate]
- vapor or sublimation pressure (350.29 K): 101.3 ± 3.6 kPa

SMILES: CCCOC(C)=O [propyl ethanoate]
- vapor or sublimation pressure (374.62 K): 101.3 ± 3.6 kPa
